Assays:
Assay type in all cases: biochemical
CYP1A2 = target: T1, CYP1A2 (Homo sapiens, UniProt P05177); assay: Cocktail assay for CYPs, phenacetin O-deethylation (CYP1A2), human liver microsomes; conditions: 10 μM phenacetin, 0.1 mg/mL human liver microsomes, 10 min at 37° C.; read-out: CYP IC50 (nM) 1A2
T1 construct: 0.1 mg/mL protein human liver microsomes (BD Gentest); tissue BD Gentest; host or cells: human liver microsomes
T1 sequence (P05177 1-516): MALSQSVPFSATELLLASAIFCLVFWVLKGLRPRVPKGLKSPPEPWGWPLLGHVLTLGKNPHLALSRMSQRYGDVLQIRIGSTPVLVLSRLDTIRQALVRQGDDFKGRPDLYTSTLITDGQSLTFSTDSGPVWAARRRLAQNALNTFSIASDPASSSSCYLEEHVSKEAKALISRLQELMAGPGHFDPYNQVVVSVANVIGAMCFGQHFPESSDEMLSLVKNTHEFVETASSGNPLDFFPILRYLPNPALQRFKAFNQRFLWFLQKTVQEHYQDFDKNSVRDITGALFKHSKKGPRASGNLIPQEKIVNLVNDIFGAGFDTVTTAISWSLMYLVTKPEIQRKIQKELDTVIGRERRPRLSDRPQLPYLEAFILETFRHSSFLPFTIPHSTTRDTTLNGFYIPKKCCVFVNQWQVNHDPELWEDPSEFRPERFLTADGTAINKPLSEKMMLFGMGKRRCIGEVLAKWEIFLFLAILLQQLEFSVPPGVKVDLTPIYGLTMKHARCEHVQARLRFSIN
Method: (§1) Determination of IC50 in a Cocktail Assay for CYPs 1A2, 2C9, 2C19, 2D6 and 3A4:
(§2) This assay was performed in a standard 96-well plate design. IC50 values were calculated from the percent inhibition observed for each test compound at 6 concentrations (for example, 0.0032, 0.016, 0.08, 0.4, 2 and 10 μM). The incubation substrate mix contains 10 μM phenacetin (1A2), 5 μM diclofenac (2C9), 30 μM mephenytoin (2C19), 5 μM dextromethorphan (2D6) and 2 μM midazolam (3A4), 0.1 mg/mL protein human liver microsomes (BD Gentest), 1 mM NAPDH, 3.3 mM MgCl2 and 100 mM potassium phosphate buffer (pH 7.4). The production of the metabolite of each probe substrate was determined after incubation for 10 min at 37° C. Quantitation of the metabolite peak area ratio against an internal standard (tolbutamide) was determined by LC/MS/MS analysis following acetonitrile treatment of the incubations.
(§3) Samples were analyzed in the MRM mode with a SCIEX API-4000 mass spectrometer (Applied Biosystems, Foster City, Calif.), with a Shimadzu LC-20 AD pump (Shimadzu corporation, Kyoto, JP) and a CTC PAL autosampler (Agilent Technologies, Switzerland). A Phenomenex, Luna, 5 nm, 100 A, 2.00×30 mm HPLC column was used for the separation. The mobile phases were: (A) 0.1% formic acid in water and (B) 0.1% formic acid in acetonitrile. The binary gradient was as follows.
(§4) The peak area ratio of the analyte to the internal standard was used to quantify the metabolite. The values of peak area ratios in the presence of test compound were compared to those of maximum or minimum controls and were expressed as % inhibition by interpolating between the maximum and minimum peak area ratios. Incubations with no inhibitor were defined as the maxima. The following equation was used to calculate the % inhibition: [1−[(X−Low control)/(High control−Low control)]]*100 For the IC50 calculation, SigmaPlot was used to plot the mean % inhibition versus the test compound concentrations and for non-linear regression analysis of the data. Depending on the range of data points defining the inhibition curve, the data may have been fit to the 4-parameter logistic equation.

CYP2C9 = target: T2, CYP2C9 (Homo sapiens, UniProt P11712); assay: Cocktail assay for CYPs, diclofenac 4′-hydroxylation (CYP2C9), human liver microsomes; conditions: 5 μM diclofenac, 0.1 mg/mL human liver microsomes, 10 min at 37° C.; read-out: CYP IC50 (nM) 2C9
T2 construct: 0.1 mg/mL protein human liver microsomes (BD Gentest); tissue BD Gentest; host or cells: human liver microsomes
Method: as §1
as §2, with “IC50 values were calculated from the percent inhibition observed for each test compound at 6 concentrations (for example, 0.0032, 0.016, 0.08, 0.4, 2 and 10 μM).” left out
as §3, §4

CYP2C19 = target: T3, CYP2C19 (Homo sapiens, UniProt P33261); assay: Cocktail assay for CYPs, mephenytoin 4′-hydroxylation (CYP2C19), human liver microsomes; conditions: 30 μM mephenytoin, 0.1 mg/mL human liver microsomes, 10 min at 37° C.; read-out: CYP IC50 (nM) 2C19
T3 construct: 0.1 mg/mL protein human liver microsomes (BD Gentest); tissue BD Gentest; host or cells: human liver microsomes
Method: as §1
as §2, with “IC50 values were calculated from the percent inhibition observed for each test compound at 6 concentrations (for example, 0.0032, 0.016, 0.08, 0.4, 2 and 10 μM).” left out
as §3, §4

CYP2D6 = target: T4, CYP2D6 (Homo sapiens, UniProt P10635); assay: Cocktail assay for CYPs, dextromethorphan O-demethylation (CYP2D6), human liver microsomes; conditions: 5 μM dextromethorphan, 0.1 mg/mL human liver microsomes, 10 min at 37° C.; read-out: CYP IC50 (nM) 2D6
T4 construct: 0.1 mg/mL protein human liver microsomes (BD Gentest); tissue BD Gentest; host or cells: human liver microsomes
Method: as §1, §2, §3, §4

CYP3A4 [1] = target: T5, CYP3A4 (Homo sapiens, UniProt P08684); assay: Cocktail assay for CYPs, midazolam 1′-hydroxylation (CYP3A4), human liver microsomes; parameters: 0.1 mg/mL protein human liver microsomes (BD Gentest); tissue BD Gentest; host or cells: human liver microsomes; conditions: 2 μM midazolam, 0.1 mg/mL human liver microsomes, 10 min at 37° C.; read-out: CYP IC50 (nM) 3A4 (MDZ)
Method: as §1, §2, §3, §4
Target sequence in this assay (P08684 whole entry): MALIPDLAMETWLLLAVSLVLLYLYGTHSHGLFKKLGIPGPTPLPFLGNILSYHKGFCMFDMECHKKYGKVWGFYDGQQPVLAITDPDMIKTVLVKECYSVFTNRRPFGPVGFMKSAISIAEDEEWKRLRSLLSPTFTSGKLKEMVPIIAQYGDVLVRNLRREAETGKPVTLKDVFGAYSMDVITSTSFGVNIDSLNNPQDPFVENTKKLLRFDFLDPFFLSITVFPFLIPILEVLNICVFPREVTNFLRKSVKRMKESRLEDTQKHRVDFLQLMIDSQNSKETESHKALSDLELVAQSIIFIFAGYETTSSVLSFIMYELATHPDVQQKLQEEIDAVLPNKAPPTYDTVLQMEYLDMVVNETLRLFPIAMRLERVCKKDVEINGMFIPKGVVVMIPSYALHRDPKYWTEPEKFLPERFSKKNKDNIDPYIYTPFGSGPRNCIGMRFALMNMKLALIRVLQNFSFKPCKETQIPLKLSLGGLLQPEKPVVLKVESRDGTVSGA

CYP3A4 [2] = target: T5, CYP3A4; assay: IC50 vs CYP3A by inhibition of lopinavir metabolism in human liver microsomes; parameters: 0.01 mg/mL protein human liver microsomes (BD Gentest); tissue BD Gentest; host or cells: human liver microsomes; conditions: 1.5 μM lopinavir, 0.01 mg/mL human liver microsomes, 8 min at 37° C.; read-out: CYP IC50 (nM) 3A4 (LPV)
Method: Determination of IC50 vs CYP3A by Measurement of Inhibition of Lopinavir Metabolism
This assay was performed in a standard 96-well plate design. IC50 values were calculated from the percent inhibition observed for each test compound at 6 concentrations (for example, 0.098, 0.391, 1.56, 6.25, 25 and 100 nM). The incubation substrate mix contains 1.5 μM lopinavir, 0.01 mg/mL protein human liver microsomes (BD Gentest), 1 mM NAPDH, 3.3 mM MgCl2 and 100 mM potassium phosphate buffer (pH 7.4). The production of the sum of three hydroxylated metabolites (M2: 6-hydroxy lopinavir, M3: 4-hydroxy lopinavir, M4: 4-hydroxy lopinavir (epimer of M3), Kumar et al., 1999) was determined after incubation for 8 min at 37° C. Quantitation of the metabolite peak area ratio against an internal standard (tolbutamide) was determined by LC/MS/MS analysis following acetonitrile treatment of the incubations.
as §3, with “μm,” for “nm,”
Target sequence in this assay (P08684 2-503): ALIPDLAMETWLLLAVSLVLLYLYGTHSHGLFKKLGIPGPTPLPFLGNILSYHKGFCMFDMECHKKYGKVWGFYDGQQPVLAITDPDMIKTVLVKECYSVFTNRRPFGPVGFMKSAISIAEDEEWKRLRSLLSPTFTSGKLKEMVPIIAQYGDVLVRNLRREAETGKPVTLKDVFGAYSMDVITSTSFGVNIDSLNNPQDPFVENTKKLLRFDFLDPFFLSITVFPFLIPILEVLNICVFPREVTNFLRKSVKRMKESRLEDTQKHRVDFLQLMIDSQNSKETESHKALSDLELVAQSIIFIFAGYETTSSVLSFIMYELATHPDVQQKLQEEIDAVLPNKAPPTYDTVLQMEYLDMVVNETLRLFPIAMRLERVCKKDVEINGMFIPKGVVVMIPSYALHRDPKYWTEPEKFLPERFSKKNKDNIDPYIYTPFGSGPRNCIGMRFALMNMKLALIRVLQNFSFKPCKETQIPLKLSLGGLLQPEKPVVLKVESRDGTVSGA
The peak area ratio of the analyte to the internal standard was used to quantify the metabolite. The values of peak area ratios in the presence of test compound were compared to those of maximum or minimum controls and were expressed as % inhibition by interpolating between the maximum and minimum peak area ratios. Incubations with no inhibitor were defined as the maxima and with 5 μM ketoconazole were defined as the minima.
The following equation was used to calculate the % inhibition: [1−[(X−Low control)/(High control−Low control)]]*100
For the IC50 calculation, SigmaPlot was used to plot the mean % inhibition versus the test compound concentrations and for non-linear regression analysis of the data. Depending on the range of data points defining the inhibition curve, the data may have been fit to the 4-parameter logistic equation.

T2 sequence (P11712 whole entry): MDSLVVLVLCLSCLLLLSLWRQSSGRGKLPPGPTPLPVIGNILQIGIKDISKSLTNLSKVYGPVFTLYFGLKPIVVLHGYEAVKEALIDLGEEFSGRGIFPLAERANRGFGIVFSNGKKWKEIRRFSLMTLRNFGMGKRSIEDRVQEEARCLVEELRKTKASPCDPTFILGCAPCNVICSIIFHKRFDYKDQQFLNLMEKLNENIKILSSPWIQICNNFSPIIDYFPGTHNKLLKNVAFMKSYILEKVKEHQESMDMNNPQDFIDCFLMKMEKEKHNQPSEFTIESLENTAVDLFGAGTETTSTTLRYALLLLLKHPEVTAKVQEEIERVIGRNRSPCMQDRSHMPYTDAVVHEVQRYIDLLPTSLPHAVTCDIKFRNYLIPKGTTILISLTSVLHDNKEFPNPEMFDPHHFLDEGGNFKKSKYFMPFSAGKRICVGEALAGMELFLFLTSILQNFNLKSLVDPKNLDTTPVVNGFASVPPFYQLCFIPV
T4 sequence (P10635 whole entry): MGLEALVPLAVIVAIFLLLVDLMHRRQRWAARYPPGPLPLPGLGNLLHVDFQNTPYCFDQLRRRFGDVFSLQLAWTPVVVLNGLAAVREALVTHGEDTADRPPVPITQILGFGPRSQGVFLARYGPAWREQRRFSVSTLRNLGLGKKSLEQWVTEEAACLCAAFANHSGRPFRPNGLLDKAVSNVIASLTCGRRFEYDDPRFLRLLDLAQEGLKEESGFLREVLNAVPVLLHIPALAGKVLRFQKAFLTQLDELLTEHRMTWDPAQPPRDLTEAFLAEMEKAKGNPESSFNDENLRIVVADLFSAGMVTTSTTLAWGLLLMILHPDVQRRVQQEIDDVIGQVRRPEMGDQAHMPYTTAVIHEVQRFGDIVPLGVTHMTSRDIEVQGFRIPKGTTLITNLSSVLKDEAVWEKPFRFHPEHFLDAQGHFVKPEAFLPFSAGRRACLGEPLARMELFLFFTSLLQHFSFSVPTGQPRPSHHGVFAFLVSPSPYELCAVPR
T3 sequence (P33261 whole entry): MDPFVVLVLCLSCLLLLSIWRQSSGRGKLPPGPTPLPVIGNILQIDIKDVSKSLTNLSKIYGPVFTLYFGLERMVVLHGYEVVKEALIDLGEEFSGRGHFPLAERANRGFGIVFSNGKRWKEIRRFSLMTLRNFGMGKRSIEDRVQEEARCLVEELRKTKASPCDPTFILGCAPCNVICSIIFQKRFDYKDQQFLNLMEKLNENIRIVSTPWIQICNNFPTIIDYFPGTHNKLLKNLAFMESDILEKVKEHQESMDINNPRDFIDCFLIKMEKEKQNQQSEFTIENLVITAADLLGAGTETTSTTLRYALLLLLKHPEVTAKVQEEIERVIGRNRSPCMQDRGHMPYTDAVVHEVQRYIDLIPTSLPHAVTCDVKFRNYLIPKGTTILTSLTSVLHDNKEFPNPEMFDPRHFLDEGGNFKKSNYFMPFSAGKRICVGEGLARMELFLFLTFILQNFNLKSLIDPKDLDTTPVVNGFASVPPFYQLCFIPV

| SMILES | IC50 (CYP1A2) [nM] | IC50 (CYP2C9) [nM] | IC50 (CYP2C19) [nM] | IC50 (CYP2D6) [nM] | IC50 (CYP3A4 [1]) [nM] | IC50 (CYP3A4 [2]) [nM] |
| --- | --- | --- | --- | --- | --- | --- |
| O=S(=O)(c1cnc(N2CCN3C[C@H](O)C[C@H]3C2)s1)N1CCCC1c1ccccc1-c1cncn1CCc1ccc(F)cc1 (single isomer, unassigned) [Compound 22a, (7R,8aS)-2-(5-(((R or S)-2-(2-(1-(4-fluoro-phenethyl)-1H-imidazol-5-yl)phenyl)pyrrolidin-1-yl)sulfonyl)thiazol-2-yl) octahydro-pyrrolo[1,2-a] pyrazin-7-ol] | 7020 | 6300 | > 10000 | 3940 | 5.3 | 1.4 |
| O=S(=O)(c1cnc(N2CCN3C[C@H](O)C[C@H]3C2)s1)N1CCCC1c1ccccc1-c1cncn1CCc1ccc(F)cc1 (single isomer, unassigned) [Compound 22b, (7R,8aS)-2-(5-(((R or S)-2-(2-(1-(4-fluoro-phenethyl)-1H-imidazol-5-yl)phenyl)pyrrolidin-1-yl)sulfonyl)thiazol-2-yl) octahydro-pyrrolo[1,2-a] pyrazin-7-ol] | > 10000 | 1690 | > 10000 | 4620 | 9.6 | 4.5 |
| O=S(=O)(c1ccc(N2CCC(O)CC2)nc1)N1CCCC1c1ccccc1-c1cncn1CCc1ccc(F)cc1 (single isomer, unassigned) [Compound 32, (R or S)-1-(5-((2-(2-(1-(4-fluorophenethyl)-1H-imidazol-5-yl)phenyl)pyrrolidin-1-yl)sulfonyl)pyridin-2-yl) piperidin-4-ol] | > 10000 | 3720 | 3410 | 5820 | 4.2 | 0.7 |
| O=S(=O)(c1ccc(N2CCC(O)CC2)nc1)N1CCCC1c1ccccc1-c1cncn1CCc1ccc(F)cc1 (single isomer, unassigned) [Compound 33, (R or S)-1-(5-((2-(2-(1-(4-fluorophenethyl)-1H-imidazol-5-yl)phenyl)pyrrolidin-1-yl)sulfonyl)pyridin-2-yl) piperidin-4-ol] | > 10000 | 2890 | > 10000 | 6500 | 22.5 | 12.6 |

The next lines start with the values.

| IC50 (CYP1A2) [nM] | IC50 (CYP2C9) [nM] | IC50 (CYP2C19) [nM] | IC50 (CYP2D6) [nM] | IC50 (CYP3A4 [1]) [nM] | IC50 (CYP3A4 [2]) [nM] | SMILES |
| --- | --- | --- | --- | --- | --- | --- |
| > 10000 | > 10000 | 6920 | 6720 | 36.4 | 58.5 | CS(=O)(=O)N1CCCC1c1ccccc1-c1cncn1CCc1ccc(F)cc1 (single isomer, unassigned) [Compound 23a, (R or S)-1-(4-fluorophenethyl)-5-(2-(1-(methylsulfonyl)pyrrolidin-2-yl)phenyl)-1H-imidazole] |
| > 10000 | > 10000 | > 10000 | > 10000 | 17 | 17.2 | CS(=O)(=O)N1CCCC1c1ccccc1-c1cncn1CCc1ccc(F)cc1 (single isomer, unassigned) [Compound 23b, (R or S)-1-(4-fluorophenethyl)-5-(2-(1-(methylsulfonyl)pyrrolidin-2-yl)phenyl)-1H-imidazole] |
| > 10000 | 1520 | 2390 | 6990 | 3.5 | 0.7 | CN(C)c1ccc(S(=O)(=O)N2CCCC2c2ccccc2-c2cncn2CCc2ccc(F)cc2)cn1 (single isomer, unassigned) [Compound 28a, (R or S)-5-((2-(2-(1-(4-fluorophenethyl)-1H-imidazol-5-yl)phenyl)pyrrolidin-1-yl)sulfonyl)-N,N-dimethylpyridin-2-amine] |
| > 10000 | 1150 | 4980 | > 10000 | 11.8 | 10.1 | CN(C)c1ccc(S(=O)(=O)N2CCCC2c2ccccc2-c2cncn2CCc2ccc(F)cc2)cn1 (single isomer, unassigned) [Compound 28b, (R or S)-5-((2-(2-(1-(4-fluorophenethyl)-1H-imidazol-5-yl)phenyl)pyrrolidin-1-yl)sulfonyl)-N,N-dimethylpyridin-2-amine] |
| > 10000 | > 10000 | 7790 | 4220 | 14.3 | – | CN1CCCC1c1ccccc1-c1cncn1CCc1ccc(F)cc1 (single isomer, unassigned) [Compound 45a, (R or S)-1-(4-fluorophenethyl)-5-(2-(1-methylpyrrolidin-2-yl)phenyl)-1H-imidazole] |
| > 10000 | > 10000 | > 10000 | 2480 | 22.8 | – | CN1CCCC1c1ccccc1-c1cncn1CCc1ccc(F)cc1 (single isomer, unassigned) [Compound 45b, (R or S)-1-(4-fluorophenethyl)-5-(2-(1-methylpyrrolidin-2-yl)phenyl)-1H-imidazole] |

From patent US9975888B2, “Aryl linked imidazole and triazole derivatives and methods of use thereof for improving the pharmacokinetics of a drug” (MERCK SHARP & DOHME CORP., priority 2013, dated 2018)
